From patent US12600732B2, “Bifunctional compounds for degrading BTK via ubiquitin proteosome pathway” (NURIX THERAPEUTICS, INC., priority 2019, dated 2026)
“And” between values parts separate entries of the source, which are not always exact repeats. Identical values can stand only once.

Legend:
BTK C481S = BTK C481S (Homo sapiens, UniProt Q06187, C481S); assay: BTK degradation (Total BTK HTRF) in TMD8 cells expressing BTK-C481S; format: cell-based; set-up: endogenous in cells; host or cells: TMD8 BTK-C481S (clone2C3), Cas9 RNP knock-in; conditions: TMD8 BTK-C481S (clone2C3) cells, treatment time 4 h
Outline: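 DC50 values come from four-parameter regression of background-subtracted HTRF ratios (665/620 nm) normalized to DMSO controls. Total BTK was quantified in lysates of BTK-C481S-expressing TMD8 cells exposed to compound for four hours, using paired donor/acceptor anti-BTK antibodies.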

CRBN neo-substrates = assay: CRBN neo-substrate levels / IMiD activity in MOLT4 and TMD8 cells (FIGS. 10-12); format: cell-based; conditions: for IMiD activity: FIG. 12; for effects on CRBN neo-substrate levels: after twenty-four hours, TMD8 and/or MOLT4 cells, FIGS. 10A and 10B; for effect on CRBN neo-substrate levels in cells: MOLT4 and TMD8 cells, FIGS. 11A and 11B
Source text: FIGS. 10A and 10B provide effects of compounds 73, 72, 121, and 44, and control compounds, on neo-substrate and ITK or BTK levels after twenty-four hours in MOLT4 cells (FIG. 10A) and TMD8 cells (FIG. 10B).
FIGS. 11A and 11B provide effects of compounds 44, 72, and 149, and control compounds, on CRBN neo-substrate and ITK levels in MOLT4 cells (FIG. 11A) and TMD8 cells (FIG. 11B).
FIG. 12 provides effects of compounds 130, 149, and 44 on ITK levels and IMiD activity.

TMD8 cells = assay: Cell viability assay (CellTiter-Glo), TMD8 cells; conditions: for EC50: Homo sapiens, TMD8, 72 h; for EMAX (% viable cells): TMD8 cells, treatment time 72 h
Procedure: Cell viability was determined using CellTiter-Glo 2.0 Luminescent Cell Viability Assay (Promega, G9242), which quantitates the amount of ATP present as a proxy for the number of viable cells in culture. Cells were plated with densities between 2000-4000 cells per well in 96-well plates. […] CellTiter-Glo reagent was added to cells at a dilution of 1:20, and the plate was incubated ten minutes at room temperature prior to reading the luminescence signal using an EnVision plate reader. Controls included cells treated with DMSO and wells that contained no cells, only media. Background luminescence signal was determined by control wells containing no cells, only media, and was then subtracted from all sample wells. Luminescence values were then normalized to DMSO-treated wells and reported at proportion viable cells.
Here, the ability of CTMs to affect viability in BTK-dependent cell lines was assessed.

primary human T cells = assay: T cell activation assay, IL-2 secretion (ELISA); format: cell-based; conditions: for IL-2 secretion compared to baseline (anti-CD3/anti-CD28 stimulation alone): primary human T cells
Outline: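 Primary human T cells stimulated via TCR with anti-CD3/anti-CD28 in the presence of test compound. IL-2 secretion measured by ELISA; surface CD25 and CD69 by flow cytometry. Values are fold-change versus anti-CD3/anti-CD28 stimulation without compound.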

[1] = tested on: TMD8 BTK C481S tumor cells; assay: TMD8 BTK C481S xenograft efficacy study; format: in vivo, mouse; conditions: PO
Procedure: […] Tumor growth inhibition (% TGI) were calculated on the final day of measurement using the equation [1−(T−T0/C−T0)]×100, where T and C represent the mean size of tumors in the treated (T) and control (C) groups, and T0 refers to the tumor size at randomization.
This example examines the activity of various BTK CTMs in relevant disease models, including the WT and C481S TMD8 model, which models B cell malignancies with/without inhibitor-driven BTK mutations at C481.

Mino cells = assay: Cell viability assay (CellTiter-Glo), Mino cells; format: cell-based; conditions: for EC50: Homo sapiens; for EC50 / EMAX (% viable cells): Mino cells, treatment time 72 h; for potency on cell viability compared with compound 130: MCL cell lines (Mino and Rec-1)
Source text: This example evaluates effects of CTM-mediated degradation on cell viability. […] Mino and Rec-1 are models of Mantle Cell Lymphoma, which is sensitive to IMiDs.

BTK [2] = assay: Non-human primate (cyno) DRF PD, BTK remaining in B cells; format: in vivo; conditions: blood, 24 h after previous dose
Procedure: This example evaluates potency and tolerability of BTK CTMs following multiple, consecutive days of dosing and examines potency of compounds for BTK and Aiolos degradation. The data in the table below is from a study in which animals were dosed daily with the designated oral dose. Analysis for BTK and Aiolos levels was performed twenty-four hours following the previous dose.

BTK [3] = biological target: BTK (Homo sapiens, UniProt Q06187); assay: BTK degradation (Total BTK HTRF) in Mino cells (Mantle Cell Lymphoma model); format: cell-based; set-up: endogenous in cells; host or cells: TMD8, Mino, Rec-1; conditions: treatment time 4 h
Procedure: BTK levels were determined using Cisbio Total-BTK HTRF (Homologous Time-Resolved Fluorescence) kit (63ADK064PEG) according to the manufacturer's protocol. Briefly, cells were incubated in 1× supplied lysis buffer for 30 minutes. In an opaque white low volume 96-well plate (Cisbio, 66PL96005), cell lysate was combined with two different specific BTK antibodies, one conjugated with Eu^3+-Cryptate FRET donor and one conjugated with d2 FRET acceptor. Assay controls include wells containing cell lysate with only the Eu^3+-Cryptate FRET donor antibody and wells containing both HTRF antibodies and lysis buffer without cells or control lysate provided by Cisbio. HTRF ratio was calculated as (acceptor signal at 665 nm/donor signal at 620 nm)×10^4. Background HTRF levels were determined from the control well containing the donor, but no acceptor, antibody. Background HTRF levels were subtracted from all samples. Readouts were reported as HTRF levels relative to HTRF levels of DMSO-treated cells. Four-parameter non-linear regressions were performed in GraphPad Prism 7.02 to obtain DC50 values.
BTK Degradation (Total BTK HTRF) at Four Hours in Mino Cells
This example evaluates the potency of CTMs in a model of Mantle Cell Lymphoma (MCL). To evaluate potential therapeutic indications, BTK CTMs were assayed in models of Mantle Cell Lymphoma as with the TMD8 cells (ABC-DLBCL) above. Tested CTMs had similar potencies for BTK degradation in the MCL cell lines (Mino and Rec-1) and TMD8 cells.

Ikaros = biological target: T1, Ikaros (Homo sapiens, UniProt Q13422+Q96SW2); assay: Ikaros degradation in Mantle Cell Lymphoma lines (flow cytometry); format: cell-based; conditions: treatment time 24 h
T1 construct: endogenous in cells; host or cells: Mino, Rec-1
Source text: (§1) Ikaros and Aiolos Degradation in Mantle Cell Lymphoma Lines (Ikaros and Aiolos Flow Cytometry)
(§2) This example evaluates the IMiD activity of CTMs in cellular models of Mantle Cell Lymphoma (MCL). […] These assays are to determine potency of CTMs for degrading IMiD neo-substrates in cellular models of MCL and to generate data to inform efficacy studies in MCL xenografts.

Aiolos = biological target: T2, Aiolos (Homo sapiens, UniProt Q96SW2+Q9UKT9); assay: Aiolos degradation in Mantle Cell Lymphoma lines (flow cytometry); format: cell-based; conditions: for IMiD activity (degradation of IMiD neo-substrates Ikaros and Aiolos): Mantle Cell Lymphoma lines Mino and Rec-1; for DC50: treatment time 24 h
T2 construct: endogenous in cells; host or cells: Mino, Rec-1
Source text: as §1, §2

[4] = 1.4 nM, fold-change of response relative to baseline
[5] = 37 nM, fold-change of response relative to baseline
[6] = 333 nM, fold-change of response relative to baseline (stimulation without compound)
[7] = 10 mg/kg, QD, 23 days of dosing
[8] = 10 mg/kg, QD, 24 days of dosing
[9] = 30 mg/kg, QD, 23 days of dosing
[10] = 30 mg/kg, QD, 24 days of dosing
[11] = 90 mg/kg, QD, 24 days of dosing
[12] = 10 mg/kg PO daily, 1 day of dosing
[13] = 10 mg/kg PO daily, 14 days of dosing
[14] = 30 mg/kg PO daily, 1 day of dosing
[15] = 30 mg/kg PO daily, 14 days of dosing
[16] = 100 mg/kg PO daily, 1 day of dosing
[17] = 100 mg/kg PO daily, 14 days of dosing

| Compound | DC50 (BTK C481S) | effects on CRBN neo-substrate levels (CRBN neo-substrates) | EC50 (TMD8 cells) | EMAX (% viable cells) (TMD8 cells) | IL-2 Secretion Anti-CD3/Anti-CD28 Stimulation (primary human T cells; [4]) | IL-2 Secretion Anti-CD3/Anti-CD28 Stimulation (primary human T cells; [5]) | IL-2 Secretion Anti-CD3/Anti-CD28 Stimulation (primary human T cells; [6]) | Tumor Growth Inhibition (relative to vehicle) [1, 9] | EC50 (Mino cells) | EMAX (% viable cells) (Mino cells) | % BTK Remaining in B cells (BTK [2]; [12]) | % BTK Remaining in B cells (BTK [2]; [13]) | % BTK Remaining in B cells (BTK [2]; [14]) | % BTK Remaining in B cells (BTK [2]; [15]) | % BTK Remaining in B cells (BTK [2]; [16]) | % BTK Remaining in B cells (BTK [2]; [17]) | DC50 (BTK [3]) | DC50 (Ikaros; Mino cells) | DC50 (Ikaros; Rec-1 cells) | DC50 (Aiolos; Mino cells) | other results |
| --- | --- | --- | --- | --- | --- | --- | --- | --- | --- | --- | --- | --- | --- | --- | --- | --- | --- | --- | --- | --- | --- |
| CN1CCN([C@@H]2CCCN(c3cnc(C(N)=O)c(Nc4ccc(C5CCN(CC6CCN(c7ccc8c(=O)n(C9CCC(=O)NC9=O)ccc8c7)CC6)CC5)cc4)n3)C2)C1=O (stereo partly shown) [Compound 72] | 2 nM | does not effect | 0.429 nM | 26% |  |  |  |  |  |  |  |  |  |  |  |  |  |  |  |  | IMiD activity (CRBN neo-substrates): did not have IMiD activity |
| NC(=O)c1ncc(N2CCCCC2)nc1Nc1ccc(C2CCN(C[C@@H]3CCN(c4ccc5c(c4)C(=O)N(C4CCC(=O)NC4=O)C5=O)C3)CC2)cc1 (stereo partly shown) [Compound 149] | 14.4 nM |  | 9.62 nM | 7% | 1.86 | 3.63 | 4.24 | 29% | 3.4 nM | 50% | 9% | 7% | 4% | 6% | 3% | 6% | 5.9 nM | 130 nM | 61 nM | 87 nM | IL-2 secretion compared to baseline (anti-CD3/anti-CD28 stimulation alone) (primary human T cells): increased IL-2 secretion but not to the level observed with IMiDs; Tumor Growth Inhibition (relative to vehicle) [1, 7]: 27%; Tumor Growth Inhibition (relative to vehicle) [1, 8]: 17%; Tumor Growth Inhibition (relative to vehicle) [1, 10]: 43%; Tumor Growth Inhibition (relative to vehicle) [1, 11]: 59%; potency on cell viability compared with compound 130 (Mino cells): more potent; effect on CRBN neo-substrate levels in cells (CRBN neo-substrates): some effect; IMiD activity (degradation of IMiD neo-substrates Ikaros and Aiolos) (Aiolos): demonstrate IMiD activity; DC50 (Aiolos; Rec-1 cells): 81 nM |
| CN1CCN([C@@H]2CCCN(c3cnc(C(N)=O)c(Nc4ccc(C5CCN(CC6CCN(c7ccc(-c8nn(C9CCC(=O)NC9=O)c(=O)n8C)cc7)CC6)CC5)cc4)n3)C2)C1=O (stereo partly shown) [Compound 121] | 4.1 nM | minimal effects | 1.54 nM | 28% |  |  |  |  |  |  |  |  |  |  |  |  |  |  |  |  |  |
| CN1CCN([C@@H]2CCCN(c3cnc(C(N)=O)c(Nc4ccc(C5CCN(C[C@H]6CCN(c7ccc8c(c7)C(=O)N(C7CCC(=O)NC7=O)C8=O)C6)CC5)cc4)n3)C2)C1=O (stereo partly shown) [Compound 44] | 1.8 nM | some effects | 3.73 nM | 15% | 1.43 | 3.49 | 3.75 | 48% and 51% and 36% | 11.7 nM | 61% | 35% | 16% | 31% | 10% | 14% | 6% | 0.56 nM | 1400 nM | 72 nM | 100 nM | IL-2 secretion compared to baseline (anti-CD3/anti-CD28 stimulation alone) (primary human T cells): increased IL-2 secretion but not to the level observed with IMiDs; Tumor Growth Inhibition (relative to vehicle) ([1]; 5 mg/kg, BID, 23 days of dosing): 65%; Tumor Growth Inhibition (relative to vehicle) ([1]; 15 mg/kg, BID, 23 days of dosing): 62%; Tumor Growth Inhibition (relative to vehicle) ([1]; 30 mg/kg, BID, 23 days of dosing): 70% and 78%; Tumor Growth Inhibition (relative to vehicle) ([1]; 60 mg/kg, QD, 23 days of dosing): 70%; potency on cell viability compared with compound 130 (Mino cells): more potent; effect on CRBN neo-substrate levels in cells (CRBN neo-substrates): some effect; DC50 (Aiolos; Rec-1 cells): 70 nM |
| CN1CCN([C@H]2CCCN(c3cnc(C(N)=O)c(Nc4ccc(C5CCN(CC6CCN(c7ccc(C(=O)NC8CCC(=O)NC8=O)nc7)CC6)CC5)cc4)n3)C2)C1=O (stereo partly shown) [Compound 130] | 1.8 nM |  | 1.5 nM | 27% | 1.19 | 1.42 | 2.02 | 79% | 176 nM | 78% | 6% | 5% | 3% | 5% | 4% | 4% | 0.58 nM | > 2000 nM | > 2000 nM | > 2000 nM | Tumor Growth Inhibition (relative to vehicle) [1, 7]: 58%; Tumor Growth Inhibition (relative to vehicle) [1, 8]: 90%; Tumor Growth Inhibition (relative to vehicle) [1, 10]: 100%; Tumor Growth Inhibition (relative to vehicle) [1, 11]: 100%; IMiD activity (CRBN neo-substrates): did not have IMiD activity; IMiD activity (degradation of IMiD neo-substrates Ikaros and Aiolos) (Aiolos): not others; DC50 (Aiolos; Rec-1 cells): > 2000 nM |
